Experimental data as given in paper PMC12518639, “Apomorphine is a novel necroptosis inhibitor targeting mixed lineage kinase domain-like protein oligomerization” (Cell Death Discovery, 2025).
One block for each compound: values may come before it.

Legend:
[1] = target: T1, Wt-mMLKL (Mus musculus, UniProt Q9D2Y4); test: SPR binding to Wt-mMLKL; conditions: CM5 chip, 25 °C
T1 construct: purchased MyBioSource MBS1379843
Excerpt: The hMLKL plasmid (RC213152, OriGene, Rockville, MD, USA), and recombinant Wt-hMLKL (ab241453, Abcam) and Wt-mMLKL (MBS1379843, MyBioSource, San Diego, CA, USA) proteins were purchased. Nt-hMLKL (2–154), Nt-mMLKL (1–180), and Ct-hMLKL (183–471) were generated using the pBT7-N-His vector. Nt-hMLKL^C86A, Nt-hMLKL^F148A, -hMLKL^C86A/L89A/D94A, and Nt-hMLKL^R145A/R146A/F148A/M150A were generated using the Site-directed Mutagenesis Kit (EZ004S, Enzynomics, S. Korea). These constructs were subcloned into pBT7-N-His and pET-15b plasmid vectors. E. coli BL21 cells transformed with the cloned expression vectors were cultured in LB medium and supplemented with 100 μg/mL ampicillin until an OD at 600 nm of 0.5–0.6 was reached. The cultures were induced by 1 mM IPTG (367-93-1, Sigma-Aldrich). The cells were lysed and centrifuged. The clear supernatants were subjected to Ni-NTA affinity chromatography (175018169, QIAGEN, Hilden, Germany). Plasmids encoding mMLKL (1–464)–gyrase fusion constructs were kindly provided by Prof. […]
The interactions of Wt-hMLKL, Wt-mMLKL, Nt-mMLKL, Nt, and Ct-hMLKL proteins with Re-APO or Ox-APO were detected through SPR analysis using Biacore™ T200 (Cytiva, Marlborough, MA, USA). […] Sensorgrams were recorded and analyzed in real-time using the control software in the BIAcore T200 system. All data were analyzed using the BIA evaluation software (Cytiva).

[2] = target: T2, Nt-hMLKL (2–154) (Homo sapiens, UniProt Q8NB16); test: SPR binding to Nt-hMLKL; conditions: for Kd: SPR, CM5 chip, 25 °C
T2 construct: Nt-hMLKL (2–154), Nt-mMLKL (1–180), and Ct-hMLKL (183–471) were generated using the pBT7-N-His vector; His (N); made in house; host or cells: E. coli BL21
T2 sequence (Q8NB16 2-154): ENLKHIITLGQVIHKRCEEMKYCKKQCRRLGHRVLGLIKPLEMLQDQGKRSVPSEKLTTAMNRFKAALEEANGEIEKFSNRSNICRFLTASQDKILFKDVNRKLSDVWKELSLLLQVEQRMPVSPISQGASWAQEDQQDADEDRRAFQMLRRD
Excerpt: The hMLKL plasmid (RC213152, OriGene, Rockville, MD, USA), and recombinant Wt-hMLKL (ab241453, Abcam) and Wt-mMLKL (MBS1379843, MyBioSource, San Diego, CA, USA) proteins were purchased. Nt-hMLKL (2–154), Nt-mMLKL (1–180), and Ct-hMLKL (183–471) were generated using the pBT7-N-His vector. Nt-hMLKL^C86A, Nt-hMLKL^F148A, -hMLKL^C86A/L89A/D94A, and Nt-hMLKL^R145A/R146A/F148A/M150A were generated using the Site-directed Mutagenesis Kit (EZ004S, Enzynomics, S. Korea). These constructs were subcloned into pBT7-N-His and pET-15b plasmid vectors. E. coli BL21 cells transformed with the cloned expression vectors were cultured in LB medium and supplemented with 100 μg/mL ampicillin until an OD at 600 nm of 0.5–0.6 was reached. The cultures were induced by 1 mM IPTG (367-93-1, Sigma-Aldrich). The cells were lysed and centrifuged. The clear supernatants were subjected to Ni-NTA affinity chromatography (175018169, QIAGEN, Hilden, Germany). Plasmids encoding mMLKL (1–464)–gyrase fusion constructs were kindly provided by Prof. James Murphy (Cell Signalling and Cell Death Division, The Walter and Eliza Hall Institute of Medical Research, Parkville, Victoria 3052, Australia).
The interactions of Wt-hMLKL, Wt-mMLKL, Nt-mMLKL, Nt, and Ct-hMLKL proteins with Re-APO or Ox-APO were detected through SPR analysis using Biacore™ T200 (Cytiva, Marlborough, MA, USA). Each MLKL protein was immobilized on a CM5 sensor chip. To derive the Rligand values, coupling processes were performed based on the molecular weights of the MLKL protein (MW ligand) and Re-APO or Ox-APO (MW analyte). Re-APO or Ox-APO was injected into an HBS buffer (10 mM HEPES, 150 mM NaCl, 3.4 mM EDTA, and 0.005% Tween 20, pH 7.4) at 25 °C (10 μL/min flow rate). Sensorgrams were recorded and analyzed in real-time using the control software in the BIAcore T200 system. All data were analyzed using the BIA evaluation software (Cytiva).

[3] = test system: MLKL; test: Confocal microscopy of MLKL membrane translocation; assay type: cell-based, human; conditions: THP-1, TBZ, 8 h
Description: THP-1 cells were washed and fixed in 4% paraformaldehyde and incubated in 0.25% Triton X-100 for 10 min, blocked for 30 min with 5% BSA-PBS, and stained with the MLKL and CD36 (ab252922, Abcam) antibody. The nuclei were stained with DAPI. Confocal microscopy (FV1000, Olympus, Tokyo, Japan) was used for image analysis. The signal intensity was measured using FluoView FV1000 software.

[4] = test system: p-MLKL oligomer; test: MLKL oligomerization Western blot (non-reducing/reducing) in THP-1 cells; assay type: cell-based, human; conditions: THP-1, TBZ, 8 h; for tetramerization and octamerization of p-MLKL: non-reducing conditions; for phosphorylation levels of RIP1, RIP3 and MLKL: reducing conditions
Description: Fig. 2 Effect of redox-sensitive APO on MLKL oligomerization. A Chemical structure of APO. APO undergoes auto-oxidation to form the oxidized form (Ox-APO), while the addition of DTT preserves the reduced form (Re-APO). The red highlights indicate the sites where APO loses hydrogen and electrons during the oxidation process. B Real-time 1D ^1H NMR spectra showing the degree of oxidation of APO. APO was dissolved from its powdered form in DPBS and incubated at 25 °C for 36 h. Real-time 1D ^1H NMR spectra were measured at a 2 h intervals after filtration through a 0.2 μm syringe filter to remove precipitates. […] C MLKL oligomerization is inhibited by APO. THP-1 cells were treated with TBZ and Re-APO or Ox-APO for 8 h. Western blot analysis of WCLs was performed under non-reducing and reducing conditions using the indicated antibodies. Percentage changes of p-MLKL oligomer band relative to GAPDH were shown. The p value for MLKL oligomer band intensity was calculated based on the average intensity of the tetramer and octamer bands. Octa octamer, Tetra tetramer, Mono monomer. Mean ± SEM (n = 3). **p < 0.001, ns not significant, one-way ANOVA. D THP-1 cells were treated with TBZ and Ox-APO or Re-APO for 8 h and then stained with DAPI and MLKL for confocal microscopy. In the intensity graph, green indicates MLKL. The signal intensity of MLKL fluorescence from the plasma membrane to the cytosol was measured using FluoView FV1000 software. Mean ± SEM (n > 100). **p < 0.01, ***p < 0.001, one-way ANOVA. E J774A.1 mouse monocytic cells were treated with TBZ and 20 μM Re-APO or Ox-APO for 8 h. Western blot analysis of WCLs was performed under non-reducing and reducing conditions using the indicated antibodies.
The cells were harvested and lysed in 1× RIPA buffer (R4100-010, GenDEPOT, Katy, TX, USA) containing protease (P3100-001, GenDEPOT) and phosphatase (1862495, Thermo Fisher Scientific) inhibitors. WCLs were then centrifuged at 20,000×g for 30 min at 4 °C and subjected to non-reducing or reducing 8–12% SDS-PAGE gel electrophoresis. The membrane was blocked with 5% non-fat milk in TBS and probed with antibodies. Antibodies to hMLKL (14993S), mMLKL (97705S), phospho-hMLKL (Ser358) (91689S), phospho-mMLKL (Ser345) (37333S), phospho-hRIP1 (Ser166) (65746S), mRIP1 (3493S), phospho-mRIP1 (Ser321) (38662S), phospho-hRIP3 (Ser227) (93654), mRIP3 (95702S), p-mRIP3 (Thr231/Ser232) (91702S), and LDH (2012S) (Cell Signaling Technology, Danvers, MA, USA), and GAPDH (LF-PA0018, Abfrontier, S. Korea), hRIP1 (ab72139, Abcam, Cambridge, UK), hRIP3 (sc-135170, Santa Cruz Biotechnology, Dallas, TX, USA), HMGB1 (ab78923, Abcam), and LAMP1 (ab24170, Abcam) antibodies were used.

T1 sequence (Q9D2Y4 whole entry): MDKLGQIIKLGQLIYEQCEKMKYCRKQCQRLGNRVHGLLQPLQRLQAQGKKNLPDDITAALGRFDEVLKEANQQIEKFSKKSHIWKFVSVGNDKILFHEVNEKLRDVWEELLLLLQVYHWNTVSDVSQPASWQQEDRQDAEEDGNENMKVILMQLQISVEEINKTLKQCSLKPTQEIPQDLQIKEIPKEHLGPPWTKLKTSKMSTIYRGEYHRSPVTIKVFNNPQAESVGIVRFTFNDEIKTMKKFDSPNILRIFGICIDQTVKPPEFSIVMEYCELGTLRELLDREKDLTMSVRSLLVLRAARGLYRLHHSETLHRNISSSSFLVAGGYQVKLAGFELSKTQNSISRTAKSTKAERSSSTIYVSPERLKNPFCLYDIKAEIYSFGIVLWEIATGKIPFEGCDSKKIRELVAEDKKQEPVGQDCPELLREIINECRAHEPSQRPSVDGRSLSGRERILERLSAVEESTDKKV

Compound: CN1CCc2cccc3c4c(cc1c23)C=CC(=O)C4=O [Ox-APO]
Kd [1]: 0.000381 µM
Kd [2]: 1.31 µM
fold difference of binding versus Re-APO ([2]; from KD values): ~1000 fold
inhibition of migration of p-MLKL to the cell membrane ([3]; same concentration): more effective than Re-APO
tetramerization and octamerization of p-MLKL [4]: strongly inhibited
phosphorylation levels of RIP1, RIP3 and MLKL [4]: little effect

Kd [1]: 0.0229 µM
Kd [2]: 1140 µM
Compound: CN1CCc2cccc3c2C1Cc1ccc(O)c(O)c1-3 (centres unmarked) [Re-APO]
tetramerization and octamerization of p-MLKL [4]: less effective than Ox-APO
phosphorylation levels of RIP1, RIP3 and MLKL [4]: little effect

Compound: CN1CCc2cccc3c2[C@@H]1Cc1ccc(O)c(O)c1-3 [S62, (6aS)-6-methyl-5,6,6a,7-tetrahydro-4H-dibenzo[de,g]quinoline-10,11-diol]
level of MLKL in the cell membrane [3]: profoundly decreased
